Values joined by “and” are separate entries in the source; they are usually repeats but may differ in a detail not shown here. Identical values can stand only once. Like-named read-outs stand apart in the source and are kept apart here.
Key:
Ascomycota fungi = conditions: Ascomycota fungi
[1] = Helical structure by circular dichroism spectroscopy; assay type: physicochemical; conditions: 222 nm
Method: The mean residue molar ellipticities of peptides were determined by circular dichroism (CD) spectroscopy, using a Jasco J-810 spectropolarimeter (Easton, Md.) at 5° C. under benign (non-denaturing) conditions (50 mM NaH2PO4/Na2HPO4/100 mM KCl, pH 7.0), hereafter referred to as benign buffer, as well as in the presence of an α-helix inducing solvent, 2,2,2-trifluoroethanol, TFE, (50 mM NaH2PO4/Na2HPO4/[…], pH 7.0 buffer/50% TFE). A 10-fold dilution of an approximately […] stock solution of the peptide analogs was loaded into a 0.1 cm quartz cell and its ellipticity scanned from 195 to 250 nm. The values of molar ellipticities of the peptide analogs at a wavelength of 222 nm were used to estimate the relative α-helicity of the peptides.

human red blood cells = assay: Hemolytic activity (MHC50/HC50), 18 h microtiter dilution; assay type: cell-based; conditions: red cells of human, 18 h
Method: Hemoglobin release was determined spectrophotometrically at 570 nm. […] MHC50 was determined by plot the concentration-lysis format.

[2] = test system: Mycobacterium tuberculosis strain H37Rv
[3] = test system: tumor necrosis factor (TNF); assay: Cytokine assay, stimulation of peripheral blood mononuclear cells, ELISA; assay type: cell-based, human
Method: (§1) Isolation of peripheral blood mononuclear cells (PBMCs) from 5 healthy individuals was performed as described elsewhere (108). Briefly, venous blood was drawn into 10 ml tubes containing 0.2 mg of EDTA (Monoject's-Hertogenbosch, NL). The PBMC fraction was obtained by density centrifugation of blood using Ficoll-Paque (Pharmacia Biotech AB, Sweden). […] The PBMCs were incubated in 96-well tissue culture plates (Greiner, Alphen, NL) at a concentration of 5×10^5 cells per well in a total volume of 200 μl, in the presence or absence of a set of stimuli in different experiments. […] After 24 h of incubation, the supernatants were collected and stored at -80° C. until analysis. Interleukin-6 (IL-6) and tumor necrosis factor (TNF) were measured by ELISA according to the manufacturer's protocol ([…], CLB, Amsterdam, NL). […] Agilent Technologies) with a linear AB gradient (0.2% acetonitrile/min) at a flow rate of 2 ml/min, where mobile phase A was 0.1% aqueous TFA in water and B was 0.1% TFA in acetonitrile. The purity of peptides was verified by analytical RP-HPLC. The peptides were further characterized by electrospray mass spectrometry and amino acid analysis.

Interleukin-6 (IL-6) = assay: as above; assay type: cell-based, human
Method: as §1

Gram-negative bacteria = assay: Antibacterial activity (MIC), microtiter dilution; assay type: cell-based
Method: MICs were determined by a standard microtiter dilution method in Mueller Hinton Broth (MHB). Serial dilutions of the 10× compound were added to the microtiter plates in a volume of 10 μL followed by 90 μL of bacteria for an inoculum of 5×10^5 colony-forming units (CFU)/mL. The plates were incubated at 37° C. for 24 h, and the MICs were determined as the lowest peptide concentration that inhibited growth. […]
Alternatively; minimal inhibitory concentrations were determined using a standard microtiter dilution method in a Mueller-Hinton (MH) medium. Briefly, cells were grown overnight at 37° C. in MH broth and diluted in the same medium. Serial dilutions of the peptides were added to the microtiter plates in a volume of 100 μl followed by 10 μl of bacteria for an initial cell concentration of 1×10^5 CFU/ml. Plates were incubated at 37° C. for 24 hours and MICs determined as the lowest peptide concentration that inhibited growth.

[4] = Peptide hydrophobicity by RP-HPLC retention; assay type: physicochemical; conditions: pH 2, room temperature
Method: Peptide Synthesis and Purification—Syntheses of the peptides were carried out by solid-phase peptide synthesis using t-butyloxycarbonyl chemistry and MBHA (4-methylbenzhydrylamine) resin (0.97 mmol/g), followed by cleavage of the peptide from the resin as described previously (117-119). However, it is understood in the art that there are other suitable instruments and methods for automated or manual peptide synthesis that could be employed to produce the peptides described herein. Peptide purification was performed by reversed-phase high-performance liquid chromatography (RP-HPLC) on a Zorbax 300 SB-C8 column (250×9.4 mm I.D.; 6.5 μm particle size, 300 Å pore size; Agilent Technologies, Little Falls, Del.) with a linear AB gradient (0.1% acetonitrile/min) at a flow rate of 2 mL/min, where eluent A was 0.2% aqueous trifluoroacetic acid (TFA), pH 2, and eluent B was 0.2% TFA in acetonitrile, where the shallow 0.1% acetonitrile/min gradient started 12% below the acetonitrile concentration required to elute the peptide on injection of analytical sample using a gradient of 1% acetonitrile/min (113). The purity of the peptides was verified by analytical RP-HPLC as described below and further characterized by mass spectrometry and amino acid analysis. Crude and purified peptides were analyzed on an Agilent 1100 series liquid chromatograph. Runs were performed on a Zorbax 300 SB-C8 column (150×2.1 mm I.D.; 5 μm particle size, 300 Å pore size) from Agilent Technologies using a linear AB gradient (1% acetonitrile/min) and a flow rate of 0.25 mL/min, where eluent A was 0.2% aqueous TFA, pH 2, and eluent B was 0.2% TFA in acetonitrile.
Analytical RP-HPLC of Peptides—Peptides were analyzed on an Agilent 1100 series liquid chromatograph (Little Falls, Del.). Runs were performed on a Zorbax 300 SB-C8 column (150×2.1 mm I.D.; 5 μm particle size, 300 Å pore size) from Agilent Technologies using linear AB gradient (1% acetonitrile/min) and a flow rate of 0.25 ml/min, where solvent A was 0.05% aqueous TFA, pH 2 and solvent B was 0.05% TFA in acetonitrile. Temperature profiling analyses were performed in 3° C. increments, from 5° C. to 80° C.

[5] = test system: Mycobacterium tuberculosis strain H37Rv; assay: microbe, parasite or virus in culture
[6] = 50% trifluoroethanol (TFE), 5° C.; cited from earlier work
[7] = target: the molecule itself; assay: RP-HPLC temperature profiling, 5 to 80 C, pH 2 (self-association)
Method: Thus, if the self-association ability of a peptide in aqueous media is too strong (e.g., forming stable folded dimers through interaction of their non-polar faces) this could decrease the ability of the peptide to dissociate to monomer where the dimer cannot effectively pass through the capsule and cell wall to reach the membrane. The ability of the peptides in the present study to self-associate was determined by the technique of RP-HPLC temperature profiling at pH 2 (30,29,42). The reason pH 2 is used to determine self-association of cationic AMPs is that highly positively charged peptides are frequently not eluted from reversed-phase columns at pH 7 due to non-specific binding to negatively charged silanols on the column matrix. This is not a problem at pH 2 since the silanols are protonated (i.e., neutral) and non-specific electrostatic interactions are eliminated. At pH 2, the interactions between the peptide and the reversed-phase matrix involve ideal retention behavior, i.e., only hydrophobic interactions between the preferred binding domain (nonpolar face) of the amphipathic molecule and the hydrophobic surface of the column matrix are present (39). […]

Peptide D1, D-(V13K) = assay: RP-HPLC temperature profiling at pH 2, maximal retention time difference against control peptide C; self-association
[8] = target: Peptide D5, D-(V13K, A12L, A20L, A23L, V16K); assay: as above
[9] = peptide concentration 0.01 μg/ml
[10] = peptide concentration 100 μg/ml

What does the source list for `CC[C@@H](C)[C@@H](NC(=O)[C@@H](CC(C)C)NC(=O)[C@@H](CCCCN)NC(=O)[C@@H](CC(C)C)NC(=O)[C@@H](CC(C)C)NC(=O)[C@H](NC(=O)[C@@H](Cc1c[nH]cn1)NC(=O)[C@@H](CC(C)C)NC(=O)[C@@H](CCCCN)NC(=O)[C@H](NC(=O)[C@@H](CCCCN)NC(=O)[C@@H](CCCCN)NC(=O)[C@@H](CC(C)C)NC(=O)[C@@H](CO)NC(=O)[C@@H](CCCCN)NC(=O)[C@@H](Cc1ccccc1)NC(=O)[C@H](NC(=O)[C@@H](CCCCN)NC(=O)[C@@H](CC(C)C)NC(=O)[C@@H](Cc1ccccc1)NC(=O)[C@@H](CO)NC(=O)[C@@H](CCCCN)NC(=O)[C@@H](Cc1c[nH]c2ccccc12)NC(=O)[C@@H](CCCCN)NC(C)=O)[C@H](C)O)[C@H](C)O)[C@H](C)O)C(=O)N[C@H](CO)C(=O)N[C@H](CO)C(N)=O` [D5]?
MIC GM (geometric mean of the MIC values), Gram-positive bacteria (Gram-positive bacteria; 24 h): 9.0 µg/mL; increase in antibacterial activity compared to D4 (Gram-positive bacteria; gram-positive bacteria): 2 fold; Fold improvement in antimicrobial activity (geometric mean data) compared to that of D4, Gram-positive bacteria (Gram-positive bacteria; relative to D4): 1.8 fold; antifungal activity relative to D4 (Ascomycota fungi): maintained the same level; increase in antifungal activity relative to D4 (Zygomycota fungi; Zygomycota fungi): 16 fold; Fold improvement in antifungal activity (geometric mean data) compared to that of D4, Zygomycota fungi (Zygomycota fungi; relative to D4): 16.0 fold; 50% TFE [θ]222 (mean residue molar ellipticity) ([1]; benign buffer containing 50% trifluoroethanol): 35,500 deg cm^2/dmol; Benign [θ]222 (mean residue molar ellipticity) ([1]; benign conditions (100 mM KCl, 50 mM NaH2PO4/Na2HPO4, pH 7.0)): 3,700 deg cm^2/dmol; Hemolytic activity HC50 (human red blood cells): 14.9 µM; reduction in viability (CFU/ml) ([2]; 100 μg/ml (31.7 μM), 7 days incubation vs day 0): about 100 fold; Anti-tuberculosis activity to H37Rv strain Fold (compared to D4) ([2]; further experiments, relative to D4): 4.9 fold; TNF Exp 1 [3, 9]: <0.015 ng/mL; TNF Exp 2 [3, 9]: <0.015 ng/mL; TNF Exp 1 ([3]; peptide concentration 1 μg/ml): <0.015 ng/mL; TNF Exp 2 ([3]; peptide concentration 1 μg/ml): <0.015 ng/mL; IL-6 Exp 1 (Interleukin-6 (IL-6); [9]): <3 pg/mL; IL-6 Exp 2 (Interleukin-6 (IL-6); [9]): <3 pg/mL; IL-6 Exp 1 (Interleukin-6 (IL-6); peptide concentration 1 μg/ml): <3 pg/mL; IL-6 Exp 1 (Interleukin-6 (IL-6); [10]): <3 pg/mL; IL-6 Exp 2 (Interleukin-6 (IL-6); [10]): <3 pg/mL; increase in antibacterial activity compared to D4 (Gram-negative bacteria; gram-negative bacteria): 2 fold; Fold improvement in antimicrobial activity (geometric mean data) compared to that of D4, Gram-negative bacteria (Gram-negative bacteria; relative to D4): 2.2 fold; MIC GM (geometric mean of the MIC values), Gram-negative bacteria (Gram-negative bacteria; six Gram-negative strains, 128 μg/mL used where no activity at 64 μg/mL): 10.1 µg/mL; Hydrophobicity tR (retention time in RP-HPLC) [4]: 80.4 min

With `CO[C@H]1/C=C/O[C@@]2(C)Oc3c(C)c(O)c4c(O)c(c(/C=N/N5CCN(C)CC5)c(O)c4c3C2=O)NC(=O)/C(C)=C\C=C\[C@H](C)[C@H](O)[C@@H](C)[C@@H](O)[C@@H](C)[C@H](OC(C)=O)[C@@H]1C` [rifampin] as the molecule, how does the MIC ([5]; 168 h, read-out: Anti-tuberculosis activity MIC) read?
Its MIC is 0.033 µM and 0.027 µg/mL.

And the MIC ([5]; read-out: Anti-tuberculosis activity to H37Rv strain MIC)?
Its MIC is 0.033 µM and 0.027 µg/mL.

Which “[θ]222” value [6] does the source give for “Ac-ELEKGGLEGEKGGKELEK-amide (Ac-ELEKGGLEGEKGGKELEK-NH2) [peptide C]” here?
Its value is −3,950.

B1: Control peptide C (random coil peptide) (peptide)
peptide: Ac-ELEKGGLEGEKGGKELEK-NH2
Does B1 bind [7]?
Result: no binding

B2: Peptide D1, D-(V13K) (peptide)
peptide: KWKSFLKTFKSAKKTVLHTALKAISS
modifications: all residues D-amino acids; N-terminal Nα-acetyl; C-terminal amide
Which PA (dimerization / self-association parameter) (Peptide D1, D-(V13K)) does the source give for B2 here?
Its PA (dimerization / self-association parameter) is 2.78.

B3: Peptide D5, D-(V13K, A12L, A20L, A23L, V16K) (peptide)
peptide: KWKSFLKTFKSLKKTKLHTLLKLISS
modifications: all residues D-amino acids; N-terminal Nα-acetyl; C-terminal amide
With B3 as the molecule, how does the PA (dimerization / self-association parameter) [8] read?
Its PA (dimerization / self-association parameter) is 4.35.

From patent US20100099614A1, “Antimicrobial Peptides and Methods of Use” (priority 2008, published 2010)
